Where “and” joins values, the source holds several entries; their conditions need not be identical. Equal values may be shown once.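 The compound was tested at five concentrations on cells cultured in 96-well plates, with a 48-hour exposure period. GI50 marks 50% less growth. TGI: concentration producing complete growth inhibition.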
Columns and labels:
Assay in all cases: inhibition of tumour cell growth, NCI panel, 48 h
SF-268 CNS = tested on: SF-268 CNS
MALME-3M melanoma = tested on: MALME-3M melanoma
DMS 273 small cell lung = tested on: DMS 273 small cell lung
NCI-H226 lung = tested on: NCI-H226 lung
NCI/ADR-RES ovarian = tested on: NCI/ADR-RES ovarian
COLO 205 colon = tested on: COLO 205 colon
HL-60(TB) leukemia = tested on: HL-60(TB) leukemia
A498 renal = tested on: A498 renal
TK-10 renal = tested on: TK-10 renal
SF-295 CNS = tested on: SF-295 CNS
KM20L2 colon = tested on: KM20L2 colon
OVCAR-3 ovarian = tested on: OVCAR-3 ovarian
MDA-MB-435 = tested on: MDA-MB-435
DU-145 prostate = tested on: DU-145 prostate
CAKI-1 renal = tested on: CAKI-1 renal
SK-MEL-5 melanoma = tested on: SK-MEL-5 melanoma
MCF7 breast = tested on: MCF7 breast
SNB-75 CNS = tested on: SNB-75 CNS
LOX IMVI melanoma = tested on: LOX IMVI melanoma
HOP-18 NSCLC = tested on: HOP-18 NSCLC
NCI-H522 lung = tested on: NCI-H522 lung
EKVX NSCLC = tested on: EKVX NSCLC
U251 CNS = tested on: U251 CNS
DMS 114 small cell lung = tested on: DMS 114 small cell lung
SW-620 colon = tested on: SW-620 colon
BT-549 breast = tested on: BT-549 breast
HOP-62 NSCLC = tested on: HOP-62 NSCLC
UACC-257 melanoma = tested on: UACC-257 melanoma
HCT-15 colon = tested on: HCT-15 colon
IGROV1 ovarian = tested on: IGROV1 ovarian
A549 NSCLC = tested on: A549 NSCLC
MOLT-4 leukemia = tested on: MOLT-4 leukemia
CCRF-CEM leukemia = tested on: CCRF-CEM leukemia
786-0 renal = tested on: 786-0 renal
SNB-78 CNS = tested on: SNB-78 CNS
HT29 colon = tested on: HT29 colon
KM12 colon = tested on: KM12 colon
HOP-92 NSCLC = tested on: HOP-92 NSCLC
UO-31 renal = tested on: UO-31 renal
MDA-MB-231 breast = tested on: MDA-MB-231 breast
SK-OV-3 ovarian = tested on: SK-OV-3 ovarian
SN12C renal = tested on: SN12C renal
HCT-116 colon = tested on: HCT-116 colon
M14 melanoma = tested on: M14 melanoma
M19-MEL melanoma = tested on: M19-MEL melanoma
HCC-2998 colon = tested on: HCC-2998 colon
SK-MEL-2 melanoma = tested on: SK-MEL-2 melanoma
PC-3 prostate = tested on: PC-3 prostate
NCI-H23 lung = tested on: NCI-H23 lung
DLD-1 colon = tested on: DLD-1 colon
SF-539 CNS = tested on: SF-539 CNS
K-562 leukemia = tested on: K-562 leukemia
ACHN renal = tested on: ACHN renal
XF 498 CNS = tested on: XF 498 CNS
RXF 393 renal = tested on: RXF 393 renal
SNB-19 CNS = tested on: SNB-19 CNS
OVCAR-8 ovarian = tested on: OVCAR-8 ovarian
NCI-H460 lung = tested on: NCI-H460 lung
OVCAR-5 ovarian = tested on: OVCAR-5 ovarian
OVCAR-4 ovarian = tested on: OVCAR-4 ovarian
MDA-N = tested on: MDA-N
SK-MEL-28 melanoma = tested on: SK-MEL-28 melanoma
LXFL 529 NSCLC = tested on: LXFL 529 NSCLC
HS 578T breast = tested on: HS 578T breast
UACC-62 melanoma = tested on: UACC-62 melanoma
RPMI-8226 leukemia = tested on: RPMI-8226 leukemia
RXF-631 renal = tested on: RXF-631 renal

CCC(=O)OC1CCn2c1nc1c2C(=O)C(C)=C(N2CC2)C1=O (configuration not stated) was tested, and the GI50 (SF-268 CNS) was 30.9 nM, the TGI (SF-268 CNS) was 1220 nM and 254 nM and the GI50 (MALME-3M melanoma) was 30.7 nM. For the same compound, the TGI (MALME-3M melanoma) was 96.1 nM and 114 nM, the TGI (DMS 273 small cell lung) was 121 nM and the GI50 (NCI-H226 lung) was 186 nM. For the same compound, the TGI (NCI-H226 lung) was 441 nM and 319 nM, the TGI (NCI/ADR-RES ovarian) was 400 nM and the GI50 (COLO 205 colon) was 101 nM. For the same compound, the TGI (COLO 205 colon) was 235 nM and 561 nM, the GI50 (HL-60(TB) leukemia) was 169 nM and the TGI (HL-60(TB) leukemia) was 432 nM and 2630 nM. It also gave a TGI (A498 renal) of 106 nM, a GI50 (TK-10 renal) of 496 nM and a GI50 (SF-295 CNS) of 31.5 nM. The TGI (SF-295 CNS) was 1080 nM and 151 nM, the TGI (KM20L2 colon) was 831 nM and the GI50 (OVCAR-3 ovarian) was 29.6 nM. For the same compound, the TGI (OVCAR-3 ovarian) was 97.5 nM and 137 nM, the TGI (MDA-MB-435) was 92.2 nM and the TGI (DU-145 prostate) was 50.3 nM. The GI50 (CAKI-1 renal) was 233 nM, the TGI (CAKI-1 renal) was 1010 nM and 511 nM and the GI50 (SK-MEL-5 melanoma) was 165 nM. For the same compound, the TGI (SK-MEL-5 melanoma) was 76.5 nM and 319 nM, the TGI (MCF7 breast) was 56.9 nM and the GI50 (SNB-75 CNS) was 22.3 nM. The TGI (SNB-75 CNS) was 95.7 nM and 54.4 nM, the GI50 (LOX IMVI melanoma) was 31.1 nM and the TGI (LOX IMVI melanoma) was 88.6 nM and 243 nM. The TGI (HOP-18 NSCLC) was 228 nM, the GI50 (NCI-H522 lung) was 15.9 nM and the TGI (NCI-H522 lung) was 40.4 nM and 89.9 nM. The GI50 (EKVX NSCLC) was 305 nM, the TGI (EKVX NSCLC) was 1040 nM and 504 nM and the GI50 (U251 CNS) was 73.3 nM. For the same compound, the TGI (U251 CNS) was 484 nM and 576 nM, the TGI (DMS 114 small cell lung) was 522 nM and the GI50 (SW-620 colon) was 24.8 nM. For the same compound, the TGI (SW-620 colon) was 244 nM and 130 nM, the TGI (BT-549 breast) was 192 nM and the GI50 (HOP-62 NSCLC) was 18.9 nM. The TGI (HOP-62 NSCLC) was 43.1 nM and 143 nM, the GI50 (UACC-257 melanoma) was 26.1 nM and the TGI (UACC-257 melanoma) was 62.9 nM and 152 nM. The GI50 (HCT-15 colon) was 20.4 nM, the TGI (HCT-15 colon) was 209 nM and 52.7 nM and the GI50 (IGROV1 ovarian) was 57.3 nM. The TGI (IGROV1 ovarian) was 237 nM and 1250 nM, the GI50 (A549 NSCLC) was 23.3 nM and the GI50 (MOLT-4 leukemia) was 1460 nM. For the same compound, the TGI (MOLT-4 leukemia) was > 83600 nM, the GI50 (CCRF-CEM leukemia) was 523 nM and the TGI (CCRF-CEM leukemia) was 3850 nM and 21800 nM. For the same compound, the GI50 (786-0 renal) was 17 nM, the TGI (SNB-78 CNS) was 1410 nM and the TGI (HT29 colon) was 1090 nM and 495 nM. The GI50 (KM12 colon) was 24.2 nM, the TGI (KM12 colon) was 159 nM and 363 nM and the GI50 (HOP-92 NSCLC) was 2610 nM. The TGI (HOP-92 NSCLC) was 7990 nM and 6330 nM, the TGI (UO-31 renal) was 136 nM and the TGI (MDA-MB-231 breast) was 3320 nM. The GI50 (SK-OV-3 ovarian) was 40.7 nM, the TGI (SK-OV-3 ovarian) was 255 nM and 283 nM and the GI50 (SN12C renal) was 28.5 nM. The TGI (SN12C renal) was 119 nM and 333 nM, the GI50 (HCT-116 colon) was 22.9 nM and the TGI (HCT-116 colon) was 779 nM and 409 nM. For the same compound, the GI50 (M14 melanoma) was 18.5 nM, the TGI (M14 melanoma) was 43.6 nM and 141 nM and the TGI (M19-MEL melanoma) was 345 nM. The TGI (HCC-2998 colon) was 214 nM and 180 nM, the GI50 (SK-MEL-2 melanoma) was 38 nM and the TGI (SK-MEL-2 melanoma) was 100 nM and 117 nM. The TGI (PC-3 prostate) was 306 nM, the GI50 (NCI-H23 lung) was 23.5 nM and the TGI (NCI-H23 lung) was 82.1 nM and 94.8 nM. The TGI (DLD-1 colon) was 1580 nM, the GI50 (SF-539 CNS) was 13.8 nM and the GI50 (K-562 leukemia) was 128 nM and 739 nM. The GI50 (ACHN renal) was 19.5 nM, the TGI (ACHN renal) was 49.1 nM and 411 nM and the TGI (XF 498 CNS) was 97.3 nM. For the same compound, the GI50 (RXF 393 renal) was 10.7 nM, the TGI (RXF 393 renal) was 26 nM and 111 nM and the GI50 (SNB-19 CNS) was 44.1 nM. The TGI (SNB-19 CNS) was 1160 nM and 697 nM, the GI50 (OVCAR-8 ovarian) was 32.7 nM and the TGI (OVCAR-8 ovarian) was 338 nM and 211 nM. The GI50 (NCI-H460 lung) was 14.1 nM, the TGI (NCI-H460 lung) was 45.2 nM and 124 nM and the GI50 (OVCAR-5 ovarian) was 74.3 nM. The TGI (OVCAR-5 ovarian) was 589 nM and 229 nM, the GI50 (OVCAR-4 ovarian) was 293 nM and the TGI (OVCAR-4 ovarian) was 291 nM and 667 nM. For the same compound, the TGI (MDA-N) was 181 nM, the GI50 (SK-MEL-28 melanoma) was 36.8 nM and the TGI (SK-MEL-28 melanoma) was 318 nM and 215 nM. The TGI (LXFL 529 NSCLC) was 350 nM, the TGI (HS 578T breast) was 780 nM and the GI50 (UACC-62 melanoma) was 23.1 nM. The TGI (UACC-62 melanoma) was 57.7 nM and 127 nM.

COc1ccc(/C(Cl)=C(\C=O)c2ccc(F)cc2)cc1 showed a TGI (SF-268 CNS) of 89300 nM, a TGI (MALME-3M melanoma) of 48000 nM and a TGI (DMS 273 small cell lung) of 56400 nM. It also gave a TGI (RPMI-8226 leukemia) of 44600 nM, a TGI (NCI-H226 lung) of 67900 nM and a TGI (COLO 205 colon) of 31900 nM. The TGI (HL-60(TB) leukemia) was 9120 nM, the TGI (A498 renal) was 52700 nM and the TGI (TK-10 renal) was > 100000 nM. For the same compound, the TGI (SF-295 CNS) was 31600 nM, the TGI (KM20L2 colon) was 20500 nM and the TGI (OVCAR-3 ovarian) was 58000 nM. It also gave a TGI (CAKI-1 renal) of 41000 nM, a TGI (SK-MEL-5 melanoma) of 27900 nM and a TGI (SNB-75 CNS) of 8330 nM. The TGI (LOX IMVI melanoma) was 39300 nM, the TGI (HOP-18 NSCLC) was 51700 nM and the TGI (NCI-H522 lung) was 24800 nM. For the same compound, the TGI (EKVX NSCLC) was > 100000 nM, the TGI (U251 CNS) was 23500 nM and the TGI (DMS 114 small cell lung) was 45100 nM. For the same compound, the TGI (SW-620 colon) was > 100000 nM, the TGI (HOP-62 NSCLC) was 59300 nM and the TGI (HCT-15 colon) was 31200 nM. It also gave a TGI (IGROV1 ovarian) of 53600 nM, a TGI (MOLT-4 leukemia) of 50900 nM and a TGI (CCRF-CEM leukemia) of 18700 nM. For the same compound, the TGI (SNB-78 CNS) was 53100 nM, the TGI (HT29 colon) was 27800 nM and the TGI (HOP-92 NSCLC) was 19100 nM. For the same compound, the TGI (UO-31 renal) was 42200 nM, the TGI (RXF-631 renal) was 80600 nM and the TGI (SK-OV-3 ovarian) was 77100 nM. For the same compound, the TGI (SN12C renal) was 64700 nM, the TGI (HCT-116 colon) was 20000 nM and the TGI (M14 melanoma) was > 100000 nM. For the same compound, the TGI (M19-MEL melanoma) was 79400 nM, the TGI (SK-MEL-2 melanoma) was 28600 nM and the TGI (NCI-H23 lung) was 72900 nM. The TGI (DLD-1 colon) was 50300 nM, the TGI (SF-539 CNS) was 50200 nM and the TGI (K-562 leukemia) was > 100000 nM. The TGI (ACHN renal) was 35600 nM, the TGI (SNB-19 CNS) was > 100000 nM and the TGI (OVCAR-8 ovarian) was > 100000 nM. For the same compound, the TGI (NCI-H460 lung) was 20100 nM, the TGI (SK-MEL-28 melanoma) was > 100000 nM and the TGI (LXFL 529 NSCLC) was 61600 nM. For the same compound, the TGI (UACC-62 melanoma) was 56000 nM.
